Results as given in ChEMBL document CHEMBL1770098, “Pyridine-derived thiosemicarbazones and their tin(IV) complexes with antifungal activity against Candida spp” (2011).
In brackets after ≈: the same amount, converted by molar mass.

Legend:
Format in all cases: functional
Nakaseomyces glabratus = assay: Antifungal activity against Candida glabrata ATCC 90030 after 24 hrs; conditions: ATCC 90030, 24 h
Candida parapsilosis = assay: Antifungal activity against Candida parapsilosis […] after 24 hrs; conditions: Lodderomyces parapsilosis
Pichia kudriavzevii = assay: Antifungal activity against Candida krusei ATCC 200298 after 24 hrs; conditions: ATCC 200298, 24 h
Candida albicans = assay: Antifungal activity against Candida albicans ATCC 18804 after 24 hrs; conditions: ATCC 18804, 24 h

## Fc1ccccc1NC(=S)N/N=C(\c1ccccc1)c1ccccn1
Nakaseomyces glabratus
  MIC: 11.4 µM (≈ 4 µg/mL)
Candida parapsilosis
  MIC: 45.7 µM (≈ 16 µg/mL)
Pichia kudriavzevii
  MIC: 45.7 µM (≈ 16 µg/mL)
Candida albicans
  MIC: 45.7 µM (≈ 16 µg/mL)

## C/C(=N\NC(=S)Nc1ccccc1[N+](=O)[O-])c1ccccn1
Nakaseomyces glabratus
  MIC: 6.34 µM (≈ 2 µg/mL)
Candida parapsilosis
  MIC: 6.34 µM (≈ 2 µg/mL)
Pichia kudriavzevii
  MIC: 6.34 µM (≈ 2 µg/mL)
Candida albicans
  MIC: 6.34 µM (≈ 2 µg/mL)

## O=[N+]([O-])c1ccccc1NC(=S)N/N=C(\c1ccccc1)c1ccccn1
Nakaseomyces glabratus
  MIC: 21.2 µM (≈ 8 µg/mL)
Candida parapsilosis
  MIC: 42.4 µM (≈ 16 µg/mL)
Pichia kudriavzevii
  MIC: 21.2 µM (≈ 8 µg/mL)
Candida albicans
  MIC: 21.2 µM (≈ 8 µg/mL)

## C/C(=N\NC(=S)Nc1ccccc1Cl)c1ccccn1
Nakaseomyces glabratus
  MIC: 13.1 µM (≈ 4 µg/mL)
Candida parapsilosis
  MIC: 26.2 µM (≈ 8 µg/mL)
Pichia kudriavzevii
  MIC: 13.1 µM (≈ 4 µg/mL)
Candida albicans
  MIC: 13.1 µM (≈ 4 µg/mL)

## C/C(=N\NC(=S)Nc1ccccc1F)c1ccccn1
Nakaseomyces glabratus
  MIC: 6.94 µM (≈ 2 µg/mL)
Candida parapsilosis
  MIC: 27.7 µM (≈ 8 µg/mL)
Pichia kudriavzevii
  MIC: 13.9 µM (≈ 4 µg/mL)
Candida albicans
  MIC: 13.9 µM (≈ 4 µg/mL)

## S=C(N/N=C(\c1ccccc1)c1ccccn1)Nc1ccccc1Cl
Nakaseomyces glabratus
  MIC: 21.8 µM (≈ 8 µg/mL)
Candida parapsilosis
  MIC: 43.6 µM (≈ 16 µg/mL)
Pichia kudriavzevii
  MIC: 21.8 µM (≈ 8 µg/mL)
Candida albicans
  MIC: 21.8 µM (≈ 8 µg/mL)

## OC(Cn1cncn1)(Cn1cncn1)c1ccc(F)cc1F [FLUCONAZOLE]
Nakaseomyces glabratus
  MIC: 6.53 µM (≈ 2 µg/mL)
Candida parapsilosis
  MIC: 6.53 µM (≈ 2 µg/mL)
Pichia kudriavzevii
  MIC: 104 µM (≈ 32 µg/mL)
Candida albicans
  MIC: 6.53 µM (≈ 2 µg/mL)
